According to publication PMC7909954 (eLife, 2021):
Where “and” joins values, the source holds several entries; their conditions need not be identical. Equal values may be shown once. Entries after “also recorded” stand apart in the source; their conditions may differ.

Key:
[1] = test system: MOR KO, KOR KO and DOR KO mice; assay: 55°C warm-water tail-withdrawal assay in opioid receptor knock out mice; assay type: in vivo, mouse
[2] = biological target: DOR (Homo sapiens, UniProt P41143); assay: Radioligand binding counter-screen (NIMH PDSP); parameters: National Institutes of Mental Health Psychoactive Drug Screen Program (service)
[3] = test system: 330 non-olfactory GPCRs; assay: PRESTO-Tango GPCRome β-arrestin recruitment off-target screen; assay type: cell-based; settings: 3 μM, follow-up concentration–response
Protocol: To identify potential off-target activity of MP1207, we used the National Institutes of Mental Health Psychoactive Drug Screen Program. MP1207 was first tested for activity against 330 non-olfactory GPCRs using the PRESTO-Tango GPCRome screening β-arrestin recruitment assay at 3 μM MP1207. The activity at each receptor was measured in quadruplicate.
Screening of compounds was accomplished using previously described methods with several modifications ([Kroeze et al., 2015]). First, HTLA cells were plated in DMEM with 2% dialyzed FBS and 10 U/mL penicillin-streptomycin. Next, the cells were transfected using an in-plate PEI method ([Longo et al., 2013]). PRESTO-Tango receptor DNAs were resuspended in OptiMEM and hybridized with PEI prior to dilution and distribution into 384-well plates and subsequent addition to cells. After overnight incubation, drugs diluted in DMEM with 1% dialyzed FBS were added to cells without replacement of the medium. The remaining steps of the PRESTO-Tango protocol were followed as previously described.
Appendix 1—figure 6. […] MP1207 was screened against 330 non-olfactory GPCRs for agonism in the arrestin recruitment TANGO assay. […] MP1207 induces an increase in signal twofold over basal at opioid receptors predominantly at KOR and DOR and much less at MOR.

[4] = biological target: all screened targets except SERT and α2C-adrenoreceptors; assay: Radioligand binding counter-screen (NIMH PDSP), remaining targets; settings: non-opioid targets
[5] = biological target: Y312W-hKOR (Homo sapiens, UniProt P41145, Y312W); assay: cell-based
[6] = biological target: KOR (Homo sapiens, UniProt P41145); assay: Radioligand binding counter-screen (NIMH PDSP); parameters: NIMH Psychoactive Drug Screening Program
[7] = biological target: mDOR (Mus musculus, UniProt P32300); assay: cell-based
[8] = DOR KO mice, 100 nmol i.c.v. in 50% DMSO, group mean n=8
[9] = DOR KO mice, 100 nmol i.c.v. in 50% DMSO, individual mouse
[10] = KOR KO mice, 100 nmol i.c.v. in 50% DMSO, group mean n=8
[11] = KOR KO mice, 100 nmol i.c.v. in 50% DMSO, individual mouse
[12] = KOR KO mice, 100 nmol i.c.v. in 50% DMSO, group mean n=6
[13] = KOR KO mice, 100 nmol i.c.v., per mouse
[14] = MP1207 30 nmol icv, MP1208 35 nmol icv

Chain of Y312W-hKOR (P41145 whole entry Y312W): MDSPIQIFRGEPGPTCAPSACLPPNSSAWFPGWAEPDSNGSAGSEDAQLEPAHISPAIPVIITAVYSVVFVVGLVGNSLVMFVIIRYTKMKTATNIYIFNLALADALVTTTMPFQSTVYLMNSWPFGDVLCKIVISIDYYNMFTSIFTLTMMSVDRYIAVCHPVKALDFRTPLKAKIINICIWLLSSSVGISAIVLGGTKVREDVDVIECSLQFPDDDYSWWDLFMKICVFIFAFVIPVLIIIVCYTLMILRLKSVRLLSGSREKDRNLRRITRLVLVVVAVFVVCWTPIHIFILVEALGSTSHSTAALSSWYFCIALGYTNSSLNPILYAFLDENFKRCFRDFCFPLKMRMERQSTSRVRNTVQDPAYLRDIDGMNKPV
Chain of mDOR (P32300 whole entry): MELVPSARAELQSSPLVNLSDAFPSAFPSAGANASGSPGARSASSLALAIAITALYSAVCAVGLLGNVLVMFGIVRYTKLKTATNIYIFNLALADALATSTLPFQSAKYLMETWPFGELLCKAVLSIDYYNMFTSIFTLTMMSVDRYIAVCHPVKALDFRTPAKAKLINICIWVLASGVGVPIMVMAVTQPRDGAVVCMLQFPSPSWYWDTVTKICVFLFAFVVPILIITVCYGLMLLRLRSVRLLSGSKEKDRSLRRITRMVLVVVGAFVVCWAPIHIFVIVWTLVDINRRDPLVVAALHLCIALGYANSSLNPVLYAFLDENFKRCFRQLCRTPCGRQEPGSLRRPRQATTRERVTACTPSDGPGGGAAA
Chain of DOR (P41143 whole entry): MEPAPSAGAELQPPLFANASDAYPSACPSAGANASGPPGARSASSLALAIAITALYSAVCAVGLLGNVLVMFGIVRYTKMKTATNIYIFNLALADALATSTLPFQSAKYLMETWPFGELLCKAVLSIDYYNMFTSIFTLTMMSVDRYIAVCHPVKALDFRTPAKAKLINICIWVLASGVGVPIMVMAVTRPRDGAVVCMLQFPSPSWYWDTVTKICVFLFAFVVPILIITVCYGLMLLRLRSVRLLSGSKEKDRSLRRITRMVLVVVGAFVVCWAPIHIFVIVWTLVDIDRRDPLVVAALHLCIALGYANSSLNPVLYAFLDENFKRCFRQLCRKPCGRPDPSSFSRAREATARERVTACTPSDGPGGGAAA
Chain of KOR (P41145 whole entry): as the sequence (P41145 whole entry Y312W) above, with W312Y counted along it

In the case of `NCc1cccc(C(=O)N[C@@H]2CCC3C4Cc5ccc(O)c6c5[C@@]3(CCN4CC3CC3)C2O6)c1` (stereo partly drawn) [MP1207, 3-(Aminomethyl)-N-((7R,12bS)−3-(cyclopropylmethyl)−9-hydroxy-2,3,4,4a,5,6,7,7a-octahydro-1H-4,12-methanobenzofuro[3,2-e]isoquinolin-7-yl)benzamide], the “%A-10 min” value [1, 8] is reported as 77.68%, the “tail-withdrawal latency, 10 min” value [1, 8] is reported as 12.075 s and the “%A-10 min” value [1, 9] is reported as 100% and 14.62% and 6.82%. For the same molecule, the “tail-withdrawal latency, 10 min” value [1, 9] was 15 s and 3.9 s and 2.7 s, the “%A-20 min” value [1, 8] was 75.4713% and the “tail-withdrawal latency, 20 min” value [1, 8] was 11.775 s. The “%A-20 min” value [1, 9] was 100% and 91.85% and 84.33% and 20.77% and 6.82%, the “tail-withdrawal latency, 20 min” value [1, 9] was 15 s and 13.9 s and 12.9 s and 4.7 s and 2.7 s and the “%A-30 min” value [1, 8] was 78.53%. The “tail-withdrawal latency, 30 min” value [1, 8] was 12.1875 s, the “%A-30 min” value [1, 9] was 100% and 13.85% and 14.39% and the “tail-withdrawal latency, 30 min” value [1, 9] was 15 s and 3.8 s and 3.7 s. For the same molecule, the “%A-40 min” value [1, 8] was 46.6687%, the “tail-withdrawal latency, 40 min” value [1, 8] was 7.925 s and the “%A-40 min” value [1, 9] was 100% and 51.85% and 38.64% and 23.13% and 45.52% and 89.78% and 12.31% and 12.12%. For the same molecule, the “tail-withdrawal latency, 40 min” value [1, 9] was 15 s and 8.5 s and 6.9 s and 4.7 s and 7.7 s and 13.6 s and 3.6 s and 3.4 s, the “%A-50 min” value [1, 8] was 38.3875% and the “tail-withdrawal latency, 50 min” value [1, 8] was 6.8 s. The “%A-50 min” value [1, 9] was 62.12% and 17.04% and 35.61% and 100% and 29.1% and 37.96% and 17.69% and 7.58%, the “tail-withdrawal latency, 50 min” value [1, 9] was 10 s and 3.8 s and 6.5 s and 15 s and 5.5 s and 4.3 s and 2.8 s and the “%A-60 min” value [1, 8] was 43.0038%. For the same molecule, the “tail-withdrawal latency, 60 min” value [1, 8] was 7.425 s, the “%A-60 min” value [1, 9] was 62.12% and 55.56% and 25% and 100% and 36.57% and 36.5% and 16.92% and 11.36% and the “tail-withdrawal latency, 60 min” value [1, 9] was 10 s and 9 s and 5.1 s and 15 s and 6.5 s and 6.3 s and 4.2 s and 3.3 s. For the same molecule, the “%A-70 min” value [1, 8] was 13.2125%, the “tail-withdrawal latency, 70 min” value [1, 8] was 3.4375 s and the “%A-70 min” value [1, 9] was 10.61% and 9.63% and 20.45% and 13.43% and 5.97% and 19.71% and 9.23% and 16.67%. The “tail-withdrawal latency, 70 min” value [1, 9] was 3.2 s and 2.8 s and 4.5 s and 3.4 s and 2.4 s and 4 s, the “%A-80 min” value [1, 8] was 8.564% and the “tail-withdrawal latency, 80 min” value [1, 8] was 2.8125 s. For the same molecule, the “%A-80 min” value [1, 9] was 5.3% and 7.41% and 6.82% and 9.7% and 4.48% and 5.84% and 11.54% and 17.42%, the “tail-withdrawal latency, 80 min” value [1, 9] was 2.5 s and 2.7 s and 2.9 s and 2.2 s and 2.1 s and 3.5 s and 4.1 s and the “%A-90 min” value [1, 8] was 3.185%. For the same molecule, the “tail-withdrawal latency, 90 min” value [1, 8] was 1.95 s, the “%A-90 min” value [1, 9] was 3.03% and 3.7% and 0% and 5.11% and 13.64% and the “tail-withdrawal latency, 90 min” value [1, 9] was 2.2 s and 2 s and 1.5 s and 1.4 s and 1.1 s and 1.8 s and 3.6 s. For the same molecule, the “%A-100 min” value [1, 8] was 2.474%, the “tail-withdrawal latency, 100 min” value [1, 8] was 1.925 s and the “%A-100 min” value [1, 9] was 0% and 2.22% and 0.75% and 2.24% and 0.73% and 13.85%. The “tail-withdrawal latency, 100 min” value [1, 9] was 1.6 s and 1.8 s and 1.4 s and 1.7 s and 1.9 s and 3.8 s, the “%A-110 min” value [1, 8] was 0.555% and the “tail-withdrawal latency, 110 min” value [1, 8] was 1.6125 s. For the same molecule, the “%A-110 min” value [1, 9] was 0% and 2.22% and 1.49% and 0.73%, the “tail-withdrawal latency, 110 min” value [1, 9] was 1.3 s and 1.8 s and 1.6 s and 1.4 s and 1.9 s and 1.7 s and the “%A-10 min” value [1, 10] was 63.4062%. For the same molecule, the “tail-withdrawal latency, 10 min” value [1, 10] was 10.1 s, the “%A-10 min” value [1, 11] was 100% and 52.52% and 98.5% and 0% and 0.76% and the “tail-withdrawal latency, 10 min” value [1, 11] was 15 s and 8.4 s and 14.8 s and 1.8 s and 1.9 s. The “%A-20 min” value [1, 10] was 39.6638%, the “tail-withdrawal latency, 20 min” value [1, 10] was 6.8125 s and the “%A-20 min” value [1, 11] was 34.59% and 36.76% and 15.83% and 23.31% and 0% and 6.82%. For the same molecule, the “tail-withdrawal latency, 20 min” value [1, 11] was 6.3 s and 6.4 s and 3.3 s and 4.8 s and 1 s and 2.7 s, the “%A-30 min” value [1, 10] was 26.1938% and the “tail-withdrawal latency, 30 min” value [1, 10] was 5.125 s. The “%A-30 min” value [1, 11] was 21.8% and 44.85% and 16.55% and 0% and 4.55%, the “tail-withdrawal latency, 30 min” value [1, 11] was 4.6 s and 7.5 s and 3.4 s and 2.2 s and 2.4 s and the “%A-40 min” value [1, 10] was 17.335%. For the same molecule, the “tail-withdrawal latency, 40 min” value [1, 10] was 3.9125 s, the “%A-40 min” value [1, 11] was 14.29% and 16.91% and 15.83% and 12.78% and 7.81% and 6.82% and the “tail-withdrawal latency, 40 min” value [1, 11] was 3.6 s and 3.7 s and 3.3 s and 3.4 s and 3.2 s and 2.7 s. For the same molecule, the “%A-50 min” value [1, 10] was 20.3588%, the “tail-withdrawal latency, 50 min” value [1, 10] was 4.2125 s and the “%A-50 min” value [1, 11] was 11.28% and 27.21% and 10.07% and 32.33% and 0% and 6.06%. The “tail-withdrawal latency, 50 min” value [1, 11] was 3.2 s and 5.1 s and 2.5 s and 6 s and 1.3 s and 2.6 s, the “%A-60 min” value [1, 10] was 11.2062% and the “tail-withdrawal latency, 60 min” value [1, 10] was 3.0875 s. The “%A-60 min” value [1, 11] was 3.76% and 12.5% and 6.47% and 0.75% and 6.25% and 1.52%, the “tail-withdrawal latency, 60 min” value [1, 11] was 2.2 s and 3.1 s and 2 s and 1.8 s and 3 s and the “%A-70 min” value [1, 10] was 9.87%. For the same molecule, the “tail-withdrawal latency, 70 min” value [1, 10] was 2.85 s, the “%A-70 min” value [1, 11] was 5.26% and 19.85% and 3.6% and 7.52% and 0% and 10.61% and the “tail-withdrawal latency, 70 min” value [1, 11] was 2.4 s and 4.1 s and 1.6 s and 2.7 s and 1.8 s and 3.2 s. The “%A-80 min” value [1, 10] was 8.631%, the “tail-withdrawal latency, 80 min” value [1, 10] was 2.725 s and the “%A-80 min” value [1, 11] was 1.5% and 30.88% and 2.16% and 12.78% and 3.91% and 8.33%. For the same molecule, the “tail-withdrawal latency, 80 min” value [1, 11] was 1.9 s and 5.6 s and 1.4 s and 3.4 s and 2.7 s and 2.9 s, the “%A-90 min” value [1, 10] was 1.379% and the “tail-withdrawal latency, 90 min” value [1, 10] was 1.7125 s. For the same molecule, the “%A-90 min” value [1, 11] was 0% and 0.74% and 0.72% and 0.78% and 0.76%, the “tail-withdrawal latency, 90 min” value [1, 11] was 1.5 s and 1.2 s and 1.6 s and 2.3 s and 1.9 s and the “%A-100 min” value [1, 12] was 1.217%. For the same molecule, the “tail-withdrawal latency, 100 min” value [1, 12] was 1.55 s, the “%A-100 min” value [1, 11] was 0.75% and 1.47% and 2.16% and 0% and the “tail-withdrawal latency, 100 min” value [1, 11] was 1.8 s and 1.6 s and 1.4 s and 1.5 s. The “%A-110 min” value [1, 12] was 0.365%, the “tail-withdrawal latency, 110 min” value [1, 12] was 1.467 s and the “%A-110 min” value [1, 11] was 0% and 0.74% and 0.72%. For the same molecule, the “tail-withdrawal latency, 110 min” value [1, 11] was 1.7 s and 1.5 s and 1.2 s, the “%A-10 min” value [1, 13] was 100% and 55.47% and the “tail-withdrawal latency, 10 min” value [1, 13] was 15 s and 8.9 s. The “%A-20 min” value [1, 13] was 100%, the “tail-withdrawal latency, 20 min” value [1, 13] was 15 s and the “%A-30 min” value [1, 13] was 38.69% and 61.31%. The “tail-withdrawal latency, 30 min” value [1, 13] was 6.6 s and 9.7 s, the “%A-40 min” value [1, 13] was 31.39% and 32.85% and the “tail-withdrawal latency, 40 min” value [1, 13] was 5.6 s and 5.8 s. The “%A-50 min” value [1, 13] was 45.26% and 30.66%, the “tail-withdrawal latency, 50 min” value [1, 13] was 7.5 s and 5.5 s and the “%A-60 min” value [1, 13] was 13.14% and 45.26%. For the same molecule, the “tail-withdrawal latency, 60 min” value [1, 13] was 3.1 s and 7.5 s, the “%A-70 min” value [1, 13] was 19.71% and 12.41% and the “tail-withdrawal latency, 70 min” value [1, 13] was 4 s and 3 s. For the same molecule, the “%A-80 min” value [1, 13] was 8.03% and 1.46%, the “tail-withdrawal latency, 80 min” value [1, 13] was 2.4 s and 1.5 s and the “%A-90 min” value [1, 13] was 2.92% and 5.11%. The “tail-withdrawal latency, 90 min” value [1, 13] was 1.7 s and 2 s, the “%A-100 min” value [1, 13] was 0% and 2.92% and the “tail-withdrawal latency, 100 min” value [1, 13] was 1.3 s and 1.7 s. For the same molecule, the “%A-110 min” value [1, 13] was 0% and 0.73%, the “tail-withdrawal latency, 110 min” value [1, 13] was 1.3 s and 1.4 s and the “antinociception in DOR KO mice vs WT” value [1, 14] was “remained intact”. For the same molecule, the “antinociception in KOR KO mice vs WT” value [1, 14] was “attenuated”, the “antinociception in MOR KO mice vs WT” value [1, 14] was “attenuated” and the Ki [2] was 60.1 nM. For the same molecule, the “agonism at 330 non-olfactory GPCRs (in words)” value [3] was “selective for opioid receptors; also recorded: no potent activity was confirmed”, the Ki [4] was over 10 µM and the EC50 [5] was 0.16 nM. The Emax ([5]; read-out: Emax% cAMP inhibition Y312W-hKOR) was 95 ± 1.8%, the Ki [6] was 0.39 nM and the EC50 ([7]; EC50 G protein activation (BRET) mDOR) was 116 nM. It also gave an Emax ([7]; HEK-293T, read-out: Emax% G protein activation (BRET) mDOR) of 52 ± 2.3%.
